Measurements reported in patent publication US20120015414A1, “Production of organic compounds” (priority 2010, published 2012).

Legend:
[1] = Spontaneous decarboxylation of synthetic beta-keto acid; settings: synthetic acid from hydrogenolysis of the benzyl ester, no enzyme
[2] = target: T1, OleC and OleD (Xanthomonas campestris pv. campestris, UniProt Q8PDW5); assay: Hydrocarbon detection enzyme assay, OleC and OleD without OleA; format: biochemical; settings: substrate incubated with OleC and OleD
T1 construct: His6-tag with thrombin site (implied by Ni-column purification); made in house; host or cells: E. coli One Shot BL21 (DE3) for OleD
Method: (§1) Hydrocarbon Detection Enzyme Assay. […] Products were extracted with 250 μl ethyl acetate using 16-hentriacontanone ketone (Tokyo Kasei Kogyo Co., Ltd., Japan) as an internal standard. After vortexing and 5 min of gentle centrifugation, the top solvent layer was transferred to a glass vial and analyzed using a gas chromatograph equipped with a flame ionization detector HP 7890A (Hewlett Packard, Palo Alto) and mass spectrometer HP 5975C (GC-MS-FID). GC was conducted under the following conditions: helium gas, 1.75 ml/min; HP-1 ms column (100% dimethylsiloxane capillary; 30 m by 250 μm by 0.25 μm); temperature ramp, 100° C. to 320° C.; 10° C./min, hold at 320° C. for 5 min, 250° C. injection port, and split at the outlet between MS and FID. The mass spectrometer was run under the following conditions: electron impact at 70 eV and 35 μA. The flame ionization detector was set at 250° C. with hydrogen flow set at 30 ml/min, air set at 400 ml/min, and helium makeup gas set at 25 ml/min.
The identity of the compound was confirmed by the mass spectrum shown above the GC chromatogram in FIG. III-6A, with the major ion, m/z 378, representing the molecular ion.
Next, it was tested if the ketone 14-heptacosanone could also give rise to 14-heptacosene or any other discernible product.

[3] = target: T2, OleA (Xanthomonas campestris pv. campestris, UniProt Q8PDX2); assay: Release of CoASH thiol (DTNB) for assay of OleA substrate range; format: biochemical; settings: for reaction with OleA to release coenzyme A: incubation time in which palmitoyl-CoA reacts completely; for % of Theoretical / CoA Product: starting substrate 65 μM; for % of Theoretical: 65 μM of product is 100% of theoretical yield; for CoA Product: free coenzyme A detected with DTNB, average of triplicate determinations with standard error; for reaction stoichiometry, coenzyme A released per acyl-CoA consumed: substrate allowed to completely react
T2 construct: His-tag (N); made in house; host or cells: E. coli One Shot BL21 (DE3), pET28b+
Method: Detecting the Release of CoASH Thiol for Assay of OleA Substrate Range. Release of the free thiol group of CoASH was detected by the addition of 5,5′-dithio-bis-(2-nitrobenzoic acid) (DTNB) measured spectrophotometrically at 412 nm (ε412=13,600 M^−1 cm^−1) (Alexson et al. 1988, J. Biol. Chem. 263:13564-13571; Ellman et al. 1958. Arch Biochem. Biophys. 74:443-450). […] DTNB was incubated with the reaction for 2 min and quantified spectrophotometrically.
Initial Defining of Substrate Specificity and Reaction Products of OleA. Enzymes catalyzing condensation or hydrolysis reactions with acyl-CoA substrates release coenzyme A that can be assayed colorimetrically using DTNB (Alexson et al. 1988. J. Biol. Chem. 263:13564-13571; Skaff et al. 2010. Anal. Biochem. 396:288-296; Sleeman et al. 2004. J. Biol. Chem. 279:6730-6736; Yashiro et al. 1995. Biochim. Biophys. 1258:288-96). […] With purified OleA, DTNB was used to determine the stoichiometry of coenzyme A formation and to begin to discern the substrate specificity of OleA.
First, the coenzyme A product stoichiometry was determined using either myristoyl-CoA or palmitoyl-CoA and allowing the substrate to completely react. With either substrate, the reaction stoichiometry was 1.0 mole of coenzyme A released for each mole of acyl-CoA consumed. In this manner, acyl-CoA chains of different lengths were tested with OleA using a time of incubation in which palmitoyl-CoA reacts completely as described in the Methods section. Under those conditions (Table III-2) palmitoyl-CoA reacted more completely than myristoyl-CoA.

[4] = target: T2, OleA; assay: GC-MS/GC-FID product analysis of OleA reactions with acyl-CoA substrates; format: biochemical; settings: peak area integration
Method: Subsequent experiments were conducted to examine if coenzyme A was formed as a consequence of acyl-group condensation, thioester bond hydrolysis, or some mixture of the two reactions. Based on previous observations (Beller et al. 2010. Appl. Environ. Microbiol. 76:1212-1223; Sukovich et al. 2010. Appl. Environ. Microbiol. 76:3850-62; Friedman et al. 2008. International Patent WO2008/113041), it was known that long-chain ketones were the observed condensation products. In subsequent experiments in this study, it was shown that β-keto acids are the initial products and those decarboxylate quantitatively to the corresponding ketone. In this context, reaction mixtures were solvent extracted and subjected to GC-MS to identify ketones derived from condensation and/or fatty acids derived from acyl chain hydrolysis.
In this context, experiments were conducted with mixtures of fatty acyl-CoA substrates. All pairwise combinations of C10, C12, C14, C16, saturated and C16 monounsaturated (C16:1) acyl-CoA substrates were incubated, extracted, and analyzed for products by GC-MS and GC-FID. In all, 15 product mixtures were analyzed. […] Only with C12 acyl condensation and C14 plus C16:1 condensation were the major products derived from a condensation of fatty acyl chains. In the case of C14 condensations (myristoyl-CoA), the ketone 14-heptacosanone was produced at only slightly lower levels than the hydrolysis product myristic acid.

[5] = tested on: Synechococcus; assay: Growth in BG11AN medium supplemented with lactic acid; format: cell-based
From the text: To maintain the co-culture of the cyanobacterium (Synechococcus) and the heterotroph (Shewanella), a minimal medium was established that would support growth of both Shewanella and Synechococcus. We started with the preferred medium for Synechococcus, known as BG11. […] A modified Synechococcus minimal medium, denoted here as BG11AN medium, was used and supplemented with lactic acid to test both lactate inhibition and ammonia inhibition. BG11AN has ammonium nitrate at 1.5 g/L replacing the sodium nitrate used in BG11. Shewanella grew well in BG11AN medium. The Synechococcus grew in the BG11AN medium, not as well as in BG11, but acceptably. The cultures in BG11 AN were more of a yellow green than the deep green of the BG11 culture. […] In fact, it stimulated growth at levels up to 0.5 g/L. It was concluded that the BG11AN medium can be used for co-culture of Synechococcus and Shewanella in subsequent experiments.

[6] = target: T3, OleA, OleC and OleD (Xanthomonas campestris pv. campestris, UniProt Q8PDX2); assay: Hydrocarbon detection enzyme assay, OleA, OleC and OleD; format: biochemical; settings: substrate incubated with OleA
T3 construct: His-tag (N); made in house
T3 sequence (Q8PDX2 1-338): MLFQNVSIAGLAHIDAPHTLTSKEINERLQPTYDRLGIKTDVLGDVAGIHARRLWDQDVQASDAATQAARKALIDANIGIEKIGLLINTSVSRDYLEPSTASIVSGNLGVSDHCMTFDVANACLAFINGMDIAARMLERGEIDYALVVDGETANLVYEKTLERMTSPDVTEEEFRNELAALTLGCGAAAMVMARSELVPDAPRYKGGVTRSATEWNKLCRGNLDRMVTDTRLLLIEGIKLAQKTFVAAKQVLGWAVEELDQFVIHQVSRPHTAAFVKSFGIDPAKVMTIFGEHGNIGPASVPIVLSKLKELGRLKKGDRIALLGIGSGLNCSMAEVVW
Method: as §1
(§2) Role of OleA in olefin biosynthesis. […] Other Ole proteins were purified as described in the methods section and tested in admixture with OleA and with myristoyl-CoA as the substrate. […] The identities of the products were confirmed by mass spectrometry.

[7] = target: T4, OleA and OleC (Xanthomonas campestris pv. campestris, UniProt Q8PDX2); assay: Hydrocarbon detection enzyme assay, OleA and OleC in admixture; format: biochemical; settings: substrate incubated with OleA and OleC
T4 construct: His-tag (N); made in house; host or cells: E. coli (OleA)
T4 sequence (Q8PDX2 1-338): T3 sequence (Q8PDX2 1-338)
Method: as §1, §2

[8] = tested on: Synechococcus; assay: Effect of growth supplements of the type found in corn steep liquor on Synechococcus; format: cell-based; settings: flasks supplemented
From the text: The effects of growth supplements of the type found in corn steep liquor on the growth of Synechococcus and Shewanella were examined.

T1 sequence (Q8PDW5 2-337, added parts left off): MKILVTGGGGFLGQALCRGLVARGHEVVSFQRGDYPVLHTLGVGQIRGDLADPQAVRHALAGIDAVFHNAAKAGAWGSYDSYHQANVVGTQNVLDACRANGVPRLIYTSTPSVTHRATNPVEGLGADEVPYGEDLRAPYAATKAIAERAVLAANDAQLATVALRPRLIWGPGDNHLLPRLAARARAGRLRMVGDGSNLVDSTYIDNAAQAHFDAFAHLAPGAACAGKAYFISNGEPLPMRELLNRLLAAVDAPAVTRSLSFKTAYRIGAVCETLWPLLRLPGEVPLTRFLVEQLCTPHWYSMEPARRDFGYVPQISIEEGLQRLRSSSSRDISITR

Structure (SMILES) | reaction with OleA to release coenzyme A [3] | % of Theoretical [3] [%] | CoA Product [3] [µM] | also measured
CCCCCCCCCCCCCC(=O)C(CCCCCCCCCCCC)C(=O)O (racemic) [2-myristoylmyristic acid] | – | – | – | stability, decarboxylation to 14-heptacosanone [1]: rapid decarboxylation; products observed by GC-MS [2]: yielded 14-heptacosanone and the expected olefinic product from head-to-head condensation, 14-heptacosene
CCCCCCCCCCCCCC(=O)CCCCCCCCCCCCC [14-heptacosanone] | – | – | – | products observed by GC-MS [2]: 14-heptacosene was not detected
CC(=O)SCCNC(=O)CCNC(=O)[C@H](O)C(C)(C)COP(=O)(O)OP(=O)(O)OC[C@H]1O[C@@H](n2cnc3c(N)ncnc32)[C@H](O)[C@@H]1OP(=O)(O)O [Acetyl-CoA] | did not | – | – | –
CCCCCCCCCC(=O)SCCNC(=O)CCNC(=O)[C@H](O)C(C)(C)COP(=O)(O)OP(=O)(O)OC[C@H]1O[C@@H](n2cnc3c(N)ncnc32)[C@H](O)[C@@H]1OP(=O)(O)O [Decanoyl-CoA] | undergo reaction to release coenzyme A | 42 | 27.2 ± 1.6 | Products, ketones (Cx) and fatty acids (FAx), in order of decreasing abundance ([4]; second fatty acyl-CoA chain C10): FA10 > C19
CC(O)C(=O)O (centres unmarked) [Lactic acid] | – | – | – | level at which growth was not inhibited [5]: ≤ 1 g/L; level at which growth was stimulated [5]: up to 0.5 g/L
CCCCCCCCCCCC(=O)SCCNC(=O)CCNC(=O)[C@H](O)C(C)(C)COP(=O)(O)OP(=O)(O)OC[C@H]1O[C@@H](n2cnc3c(N)ncnc32)[C@H](O)[C@@H]1OP(=O)(O)O [Lauroyl-CoA] | undergo reaction to release coenzyme A | 79 | 51.4 ± 1.9 | –
CCCCCCCCCCCCCC(=O)SCCNC(=O)CCNC(=O)[C@H](O)C(C)(C)COP(=O)(O)OP(=O)(O)OC[C@H]1O[C@@H](n2cnc3c(N)ncnc32)[C@H](O)[C@@H]1OP(=O)(O)O [Myristoyl-CoA] | – | 97 | 63.2 ± 0.4 | products observed by GC-MS [6]: the olefin 14-heptacosene (20.4 min) was observed in addition to the peak corresponding to 14-heptacosanone; products observed by GC-MS [7]: produced only 14-heptacosanone; reaction stoichiometry, coenzyme A released per acyl-CoA consumed [3]: 1.0 mole of coenzyme A released for each mole of acyl-CoA consumed; Products, ketones (Cx) and fatty acids (FAx), in order of decreasing abundance ([4]; second fatty acyl-CoA chain C14): FA14 > C27
CCCCCCCC(=O)SCCNC(=O)CCNC(=O)[C@H](O)C(C)(C)COP(=O)(O)OP(=O)(O)OC[C@H]1O[C@@H](n2cnc3c(N)ncnc32)[C@H](O)[C@@H]1OP(=O)(O)O [Octanoyl-CoA] | undergo reaction to release coenzyme A | 12 | 8.0 ± 2.2 | –
CCCCCC/C=C\CCCCCCCC(=O)SCCNC(=O)CCNC(=O)[C@H](O)C(C)(C)COP(=O)(O)OP(=O)(O)OC[C@H]1O[C@@H](n2cnc3c(N)ncnc32)[C@H](O)[C@@H]1OP(=O)(O)O [Palmitoleoyl-CoA] | undergo reaction to release coenzyme A | 57 | 36.9 ± 0.9 | Products, ketones (Cx) and fatty acids (FAx), in order of decreasing abundance ([4]; second fatty acyl-CoA chain C16:1): FA16:1 > C31:2
CCCCCCCCCCCCCCCC(=O)SCCNC(=O)CCNC(=O)[C@H](O)C(C)(C)COP(=O)(O)OP(=O)(O)OC[C@H]1O[C@@H](n2cnc3c(N)ncnc32)[C@H](O)[C@@H]1OP(=O)(O)O [Palmitoyl-CoA] | – | 100 | 65.0 ± 0.9 | reaction stoichiometry, coenzyme A released per acyl-CoA consumed [3]: 1.0 mole of coenzyme A released for each mole of acyl-CoA consumed; Products, ketones (Cx) and fatty acids (FAx), in order of decreasing abundance ([4]; second fatty acyl-CoA chain C16): FA16 > C31
CCCCCCCCCCCCCCCCCC(=O)SCCNC(=O)CCNC(=O)[C@H](O)C(C)(C)COP(=O)(O)OP(=O)(O)OC[C@H]1O[C@@H](n2cnc3c(N)ncnc32)[C@H](O)[C@@H]1OP(=O)(O)O [Stearoyl-CoA] | undergo reaction to release coenzyme A | 29 | 18.7 ± 1.8 | –
N[C@@H](CCC(=O)O)C(=O)O [glutamate] | – | – | – | effect on growth of Synechococcus [8]: slightly better growth
NC(=O)CC[C@H](N)C(=O)O [glutamine] | – | – | – | effect on growth of Synechococcus [8]: slightly better growth
